Reference: US10010547B2 (CASCADIAN THERAPEUTICS, INC., priority 2014, dated 2018)
Where a name gives a salt, the structure may show the parent alone. Read-outs that look alike come from different tables or passages of the source.

Key:
Chk-1 kinase = Chk-1 kinase (Homo sapiens (Human), UniProt O14757); assay: Chk-1 Kinase Inhibiting Activity (33P-ATP filter assay, CHKtide substrate); assay type: biochemical; conditions: against Chk-1 kinase; read-out: IC50
How it was run: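 Full-length N-terminal GST-tagged human Chk-1 from insect cells, 0.5 nM final, with 20 μM peptide substrate and 33P-ATP in HEPES pH 7.5 buffer with 1% DMSO. Reaction ran 120 minutes at room temperature; incorporated radioactivity captured on P81 filters and counted for IC50.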

MIA PaCa-2 cells = assay: Gemcitabine Combination Cell Assay (Cell Titer Glo); assay type: cell-based; conditions: for IC50: Homo sapiens; for 10xLS: approximate concentration of Chk1 inhibitor that results in a 10-fold reduction in the IC50 of gemcitabine alone; for 2xLS: approximate concentration of Chk1 inhibitor that results in a two-fold reduction in the IC50 of gemcitabine alone
How it was run: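 MIA PaCa-2 cells were treated 72 h with half-log dilutions of Chk1 inhibitor (top 3000 nM) and gemcitabine (top 100 nM), alone and in full matrix; viability by CellTiter-Glo luminescence. IC50s from four-parameter fit; Chk1 inhibitor concentrations giving two- and ten-fold lowering of gemcitabine IC50 were estimated.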

[1] = Chk1 inhibitor alone, MIA PaCa-2 cells, 72 h, read-out: Chk1 IC50

Sequence of Chk-1 kinase (O14757 whole entry): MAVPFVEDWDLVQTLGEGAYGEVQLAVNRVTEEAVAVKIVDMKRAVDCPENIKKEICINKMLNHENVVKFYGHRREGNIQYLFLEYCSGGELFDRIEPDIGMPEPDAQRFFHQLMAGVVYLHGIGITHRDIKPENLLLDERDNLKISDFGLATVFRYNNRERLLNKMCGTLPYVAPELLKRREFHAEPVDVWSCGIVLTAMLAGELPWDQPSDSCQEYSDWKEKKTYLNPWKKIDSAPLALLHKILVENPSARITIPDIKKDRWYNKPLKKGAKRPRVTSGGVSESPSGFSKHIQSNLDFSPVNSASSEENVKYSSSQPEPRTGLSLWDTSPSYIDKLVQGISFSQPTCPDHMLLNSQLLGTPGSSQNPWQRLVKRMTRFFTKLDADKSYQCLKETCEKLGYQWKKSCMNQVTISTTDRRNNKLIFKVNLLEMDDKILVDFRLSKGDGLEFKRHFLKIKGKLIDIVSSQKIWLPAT

Compound	IC50 (Chk-1 kinase) [nM]	IC50 (MIA PaCa-2 cells; [1]) [nM]	10xLS (MIA PaCa-2 cells; MIA PaCa-2 cells, 72 h) [nM]	2xLS (MIA PaCa-2 cells; MIA PaCa-2 cells, 72 h) [nM]	IC50 (MIA PaCa-2 cells; MIA PaCa-2, 72 h, read-out: Chk1 IC50 (nM)) [nM]
COc1c(-c2cc(Nc3cnc(C#N)cn3)n[nH]2)ccc(C2CCNCC2)c1Cl [Example 70, 5-[[5-[3-chloro-2-methoxy-4-(4-piperidyl)phenyl]-1H-pyrazol-3-yl]amino]pyrazine-2-carbonitrile]	10	2620	3000	300	
COc1cc(CN(C)C2CCOCC2)ccc1-c1cc(Nc2cnc(C#N)cn2)n[nH]1 [Example 63, 5-[[5-[2-methoxy-4-[[methyl(tetra hydropyran-4-yl)amino]methyl]phenyl]-1H-pyrazol-3-yl]amino]pyrazine-2-carbonitrile]	0.052	600	100	<3	
COc1cc(CNC2CCN(C)CC2)ccc1-c1cc(Nc2cnc(C#N)cn2)n[nH]1 [Example 37, 5-[[5-[2-methoxy-4-[[(1-methyl-4-piperidyl)amino]methyl]phenyl]-1H-pyrazol-3-yl]amino]pyrazine-2-carbonitrile]	0.11	182	<100	3	
COc1cc(C2CCCNC2)ccc1-c1cc(Nc2cnc(C#N)cn2)n[nH]1 (stereo not shown) [Example 39, 5-[[5-[2-methoxy-4-(3-piperidyl)phenyl]-1H-pyrazol-3-yl]amino]pyrazine-2-carbonitrile]	0.18	168	30	<3	
COc1cc(CN[C@@H]2CCOC2)ccc1-c1cc(Nc2cnc(C#N)cn2)n[nH]1 [Example 131, 5-[[5-[2-methoxy-4-[[[(3R)-tetrahydrofuran-3-yl]amino]methyl]phenyl]-1H-pyrazol-3-yl]amino]pyrazine-2-carbonitrile]	0.1	592	100	3	
COc1cc(C2CCN(C)CC2)c(F)cc1-c1cc(Nc2cnc(C#N)cn2)n[nH]1 [Example 32, 5-[[5-[5-fluoro-2-methoxy-4-(1-methyl-4-piperidyl)phenyl]-1H-pyrazol-3-yl]amino]pyrazine-2-carbonitrile]	0.26	784	300	30	
CCN1CCN(c2ccc(-c3cc(Nc4cnc(C#N)cn4)n[nH]3)c(OC)c2)CC1 [Example 80, 5-[[5-[4-(4-ethylpiperazin-1-yl)-2-methoxy-phenyl]-1H-pyrazol-3-yl]amino]pyrazine-2-carbonitrile]	0.19	36	10	<3	
CCN1CCN(c2ccc(-c3cc(Nc4cnc(C#N)cn4)n[nH]3)c(OC)c2)C[C@H]1C [Example 93, 5-[[5-[4-[(3R)-4-ethyl-3-methyl-piperazin-1-yl]-2-methoxy-phenyl]-1H-pyrazol-3-yl]amino]pyrazine-2-carbonitrile]	0.016	99	<30	<3	
COc1cc(O[C@@H]2CCN(C(C)C)C2)ccc1-c1cc(Nc2cnc(C#N)cn2)n[nH]1 [Example 95, 5-[[5-[4-[(3R)-1-isopropylpyrrolidin-3-yl]oxy-2-methoxy-phenyl]-1H-pyrazol-3-yl]amino]pyrazine-2-carbonitrile]	0.15	183	<100	<3	
CCN1CCC(c2ccc(-c3cc(Nc4cnc(C#N)cn4)n[nH]3)c(OC)c2)C(F)C1 (stereo not shown) [Example 87, 5-[[5-[4-(1-ethyl-3-fluoro-4-piperidyl)-2-methoxy-phenyl]-1H-pyrazol-3-yl]amino]pyrazine-2-carbonitrile hydrochloride]	0.059		300	10	540
COc1cc(OCC2CCOCC2)ccc1-c1cc(Nc2cnc(C#N)cn2)n[nH]1 [Example 75, 5-[[5-[2-methoxy-4-(tetrahydropyran-4-ylmethoxy)phenyl]-1H-pyrazol-3-yl]amino]pyrazine-2-carbonitrile]	0.55	> 3000	>3000	>3000	
COc1cc(O[C@H]2CCN(C)C2)ccc1-c1cc(Nc2cnc(C#N)cn2)n[nH]1 [Example 42, 5-[[5-[2-methoxy-4-[(3S)-1-methylpyrrolidin-3-yl]oxy-phenyl]-1H-pyrazol-3-yl]amino]pyrazine-2-carbonitrile]	0.21	73	<30	<3	
COc1cc(N2CCN(C(C)C)[C@H](C)C2)ccc1-c1cc(Nc2cnc(C#N)cn2)n[nH]1 [Example 133, 5-[[5-[4-[(3R)-4-isopropyl-3-methyl-piperazin-1-yl]-2-methoxy-phenyl]-1H-pyrazol-3-yl]amino]pyrazine-2-carbonitrile]	0.12	139	30	<3	
COc1cc(OC[C@@H]2CCCN2C(C)C)ccc1-c1cc(Nc2cnc(C#N)cn2)n[nH]1 [Example 129, 5-[[5-[4-[[(2S)— 1-isopropylpyrrolidin-2-yl]methoxy]-2-methoxy-phenyl]-1H-pyrazol-3-yl]amino]pyrazine-2-carbonitrile]	0.046	278	<100	<3	
COc1cc(C2CCN(CCO)CC2)ccc1-c1cc(Nc2cnc(C#N)cn2)n[nH]1 [Example 99, 5-[[5-[4-[1-(2-hydroxyethyl)-4-piperidyl]-2-methoxy-phenyl]-1H-pyrazol-3-yl]amino]pyrazine-2-carbonitrile]	0.15	233	30	<3	
COc1cc(C2CCN(C)CC2)ccc1-c1cc(Nc2ccc(C#N)c(F)c2)n[nH]1 [Example 30, 2-fluoro-4-[[5-[2-methoxy-4-(1-methyl-4-piperidyl)phenyl]-1H-pyrazol-3-yl]amino]benzonitrile]	17	> 3000	>3000	1000	
COCCN1CCC(c2ccc(-c3cc(Nc4cnc(C#N)cn4)n[nH]3)c(OC)c2)CC1 [Example 89, 5-[[5-[2-methoxy-4-[1-(2-methoxyethyl)-4-piperidyl]phenyl]-1H-pyrazol-3-yl]amino]pyrazine-2-carbonitrile]	0.051	193	100	<3	
COc1cc(N(C)CC2CCN(C(C)C)CC2)ccc1-c1cc(Nc2cnc(C#N)cn2)n[nH]1 [Example 148, 5-[[5-[4-[(1-isopropyl-4-piperidyl)methyl-methyl-amino]-2-methoxy-phenyl]-1H-pyrazol-3-yl]amino]pyrazine-2-carbonitrile]	0.031	254	<100	<3	
CCN1CCC(CNc2ccc(-c3cc(Nc4cnc(C#N)cn4)n[nH]3)c(OC)c2)CC1 [Example 108, 5-[[5-[4-[(1-ethyl-4-piperidyl)methylamino]-2-methoxy-phenyl]-1H-pyrazol-3-yl]amino]pyrazine-2-carbonitrile]	0.043	77	30	<3	
COc1cc(CNCC2CCN(C(=O)C3CC3)CC2)ccc1-c1cc(Nc2cnc(C#N)cn2)n[nH]1 [Example 12, 5-[5-(4-{[(1-cyclopropane-carbonyl-piperidin-4-ylmethyl)-amino]-methyl}-2-methoxy-phenyl)-1 H-pyrazol-3-ylamino]-pyrazine-2-carbonitrile]	0.034	264	~50	<3	
COc1cc(CO[C@@H]2CCN(C(C)C)C2)ccc1-c1cc(Nc2cnc(C#N)cn2)n[nH]1 [Example 141, 5-[[5-[4-[[(3R)-1-isopropylpyrrolidin-3-yl]oxymethyl]-2-methoxy-phenyl]-1H-pyrazol-3-yl]amino]pyrazine-2-carbonitrile]	0.019	970	<300	<10	
CCN1CCC(CN(C)c2ccc(-c3cc(Nc4cnc(C#N)cn4)n[nH]3)c(OC)c2)CC1 [Example 145, 5-[[5-[4-[(1-ethyl-4-piperidyl)methyl-methyl-amino]-2-methoxy-phenyl]-1H-pyrazol-3-yl]amino]pyrazine-2-carbonitrile]	0.0084	267	<100	<3	
CC(C)Oc1cc(C2CCN(C)CC2)ccc1-c1cc(Nc2cnc(C#N)cn2)n[nH]1 [Example 38, 5-[[5-[2-isopropoxy-4-(1-methyl-4-piperidyl)phenyl]-1H-pyrazol-3-yl]amino]pyrazine-2-carbonitrile]	0.88	2750	1000	100	
CN1CCC(c2ccc(-c3cc(Nc4cnc(C#N)cn4)n[nH]3)cc2)CC1 [Example 27, 5-[[5-[4-(1-methyl-4-piperidyl)phenyl]-1H-pyrazol-3-yl]amino]pyrazine-2-carbonitrile]	3.6	5750	3000	300	
COc1cc(NCC2CCOCC2)ccc1-c1cc(Nc2cnc(C#N)cn2)n[nH]1 [Example 74, 5-[[5-[2-methoxy-4-(tetrahydropyran-4-ylmethylamino)phenyl]-1H-pyrazol-3-yl]amino]pyrazine-2-carbonitrile]	0.35	282	100	3	
